This note sets out measurements from patent US6852696B2, “Inhibitors of glycosaminoglycans” (The University of Texas System, priority 1999, dated 2005).

Test [1] relates to XS52 DC and HDK-1 T cells. The test is described as follows: Cytokine secretion in XS52 DC / HDK-1 T cell / KLH co-culture (ELISA). It counts as cell-based. Conditions: 500 μg/ml; dose-dependent. As to the method:
(§1) FIGS. 7A-C. Impact of tetrameric LIP on cytokine production during antigen presentation. (FIG. 7A) XS52 DC (0.2×10^6 cells/well) were cultured in the presence or absence of the KLH-reactive CD4^+ Thl clone HDK-1 (0.2×10^6 cells/well) and/or KLH (100 μg/ml). Culture supernatants collected at 24 hrs were examined for the indicated cytokines by ELISA. Data shown are the means+/−s.e.m. from triplicate samples. (FIG. 7B) XS52 DC and HDK-1 T cells were co-cultured with KLH in the presence of the indicated concentrations of Pep-1. Culture supernatants collected at 24 hrs were examined for the indicated cytokines by ELISA. (FIG. 7C) CD4^+ T cells isolated from DO11.10 transgenic mice (5×10^4 cells/well) were co-cultured with the indicated numbers of splenic DC isolated from BALB/c mice and the OVA peptide (2 μg/ml) in the presence of 500 μg/ml of Pep-1 (open circles), RP (triangles), or DMSO alone (closed circles). Co-cultures of CD4^+ T cells and DC in the absence of OVA peptide served as a control (square). All the cultures were examined for ^3H-thymidine uptake on Day 3. Data shown are the means+/−s.d. from triplicate samples.
During antigen-specific interaction DC delivers activation signals to T cells, leading to differentiation and clonal expansion of antigen-reactive T cells. At the same time, T cells deliver signals back to DC, leading to “terminal maturation” of DC^80. To test the potential impact of Pep-1 on this bi-directional DC-T cell interaction, the present inventors employed a fully characterized in vitro experimental system in which XS52 DC are cultured with a KLH-reactive CD4^+ Th1 clone HDK-1 in the presence of antigen (KLH)^81-85.

Another test relates to DO11.10 T cells. The test is described as follows: DO11.10 T cell proliferation triggered by splenic DC and OVA peptide (3H-thymidine uptake). The test is classed as cell-based, mice. As to the method:
as §1, with “Data shown are the means+/−s.d. from triplicate samples.” left out
FIGS. 9A-G. DC-associated HA and DC-dependent T cell proliferation. […] Statistically significant differences assessed by a two-tailed Student's t-test for comparing two groups or by analysis of variance (ANOVA) followed by LSD for multiple comparisons are indicated by asterisks (*P<0.05, **P<0.01). […]

Test [2] concerns HAase (from bovine testis). The test is described as follows: HAase-mediated degradation of immobilized biotinylated HA. The test is classed as biochemical. The note with it: 500 μg/ml pretreatment. As to the method:
FIGS. 5A-C. Impact of Pep-1 on HA degradation products. (FIG. 5A) 96 well plates were coated with biotinylated-HA (0.1 μg/ml) and pretreated with 500 μg/ml of Pep-1 (open circles), RP (closed circles), or PBS alone (triangles) for 3 hours. These plates were then incubated for 30 min in the presence of HAase (from bovine testis). After extensive wash, the amounts of remaining biotinylated HA on the plates were determined by addition of streptavidin-alkaline phosphatase followed by p-nitrophenyl phosphate substrate. The % HA digestion was calculated from the optical densities. The data shown are the means+/−s.e.m.from triplicate samples analyzed with a hyperbolic model. (FIG. 5B) The impact of Pep-1 on HA digestion and on cell adhesion was examined in parallel using the HA-coated plates prepared simultaneously. Pep-1, RP, or PBS alone was added to the HA-coated plates as above and their effects on HAase-mediated HA degradation and on the adhesion of ^35S-labeled BW5147 thymoma cells were compared. […] Results are expressed as the means+/−s.e.m.from triplicate samples.
To test the impact of Pep-1 on HA degradation, the present inventors developed a 96 well-based assay in which biotinylated HA was immobilized onto the plates and treated with HAase. The amounts of HA that remained attached to the wells was then determined by addition of streptavidin-conjugated alkaline phosphatase (FIG. 5A).

Regarding GAHWQFNALTVR [Pep-1], in test [1], the “inhibition of IL-6 secretion” value was “almost complete inhibition”, the “inhibition of TNFα secretion” value is on record as “almost complete inhibition” and the “inhibition of interferon-γ secretion” value is “almost complete inhibition”. In addition, the “inhibition of DC-dependent, antigen-specific T cell proliferation” value with DO11.10 T cells (300 μM (FIG. 9B)) was “inhibited”. Also, the “inhibition of activation of naive CD4+ T cells by splenic DC” value with DO11.10 T cells (500 μg/ml (FIG. 7C)) is “inhibited the activation of immunologically naive CD4+ T cells”. Besides, the “effect on HAase-mediated HA degradation” value in test [2] is given as “failed to affect the degradation of HA substrates”.
